# According to a melting point compilation (Tetko et al.; mined from patent text by program, amines drawn as free bases though some values may be those of a salt):
row,melting point,SMILES
1,139 to 142 °C,CCCN(CCC)C(=O)/C=C/CSc1nc(N)cc(Cl)n1
2,88 °C,O=C(OCc1cc(COC(=O)c2ccc(O)c(F)c2)cc(COC(=O)c2ccc(O)c(F)c2)c1)c1ccc(O)c(F)c1
3,77 to 79 °C,CC(C)c1cccc(C(C)C)c1NC(=O)CN1CCCN(CCCSc2nc3cccc(C(F)(F)F)c3o2)CC1
4,60 °C,S=c1cc(N2CCOCC2)ss1
5,254 to 255 °C,O=c1c(/C=C/c2nnn[nH]2)coc2ccccc12
6,102 °C,CN(Cc1ccncc1)Cc1ccc(CCC(=O)Nc2ccc(-c3ccc(Cl)cc3)cc2)cc1
7,79 to 80 °C,COCCNC(=O)c1cccc(-c2cccc3cc(Cc4ccc5c(c4)CCO5)sc23)c1
8,76 to 77 °C,OCc1cnoc1-c1ccc(Cl)cc1Cl
9,69 to 70 °C,COC(=O)c1cnn(C)c1Cl
10,145 to 146 °C,COC(=O)C1=C(C)NC(C(C)(OC)OC)=C(C(=O)OC)C1c1ccccc1Cl (stereo unspecified)
11,105 °C,O=C(CCCCCBr)NC(C(=O)c1ccc(Cl)cc1)c1ccc(Cl)cc1 (stereo unspecified)
12,175 °C,O=C(O)Cc1ccc2oc(-c3ccccc3)nc2c1
13,< 50 °C,CCOC(=O)c1cc(F)ccc1[N+](=O)[O-]
14,174 °C,CN1CCCC(C2=C(C#N)C(c3cccc(C#N)c3Br)c3c[nH]nc3N2)C1 (stereo unspecified)
15,157 to 158 °C,O=C(O)CCCNC(=O)CCCNC(=O)c1cc(Br)no1
16,208 to 210 °C,CN1CCC2(CC1)c1ccccc1C(O)c1ccccc12
17,234 to 236 °C,O=C(CCc1ccc(Cl)cc1Cl)NC1CC(=O)c2ccccc2NC1=O (stereo unspecified)
18,86 to 87 °C,COC(=O)C[C@H](Cc1ccc(-c2ccccc2)cc1)NC(=O)OC(C)(C)C
19,115 °C,Cc1cc(C)c2c(c1)cc(C(=O)OCc1ccccc1)n2CC(=O)OC(C)(C)C
20,168 °C,O=Cc1cnc(-c2ccc(F)cc2)nc1
21,105 to 107 °C,O=C(c1cccnn1)c1ccccc1Cl
22,58 to 61 °C,CCCCC1=NC2(CCCC2)C(=O)N1Cc1ccc(-c2ccccc2S(=O)(=O)Nc2onc(C)c2C)c(OCC(C)C)c1
23,258 °C,CC(C)n1cc(-c2ncc(N)nc2-c2ccc(F)cc2)ccc1=O
24,110 to 112 °C,COC(=O)c1ccc2c(c1)CCC(CCN1CCC(c3ccccc3)CC1)C2=O (stereo unspecified)

row,melting point,SMILES
1,94 to 98 °C,CCN1CS(=O)c2cccc(Cl)c21 (stereo unspecified)
2,121 to 122 °C,COc1ccc(-c2nn(CC(C)C)c(=O)c(CO)c2-c2ccc(OC)cc2)cc1
3,108 °C,CCOc1ccc2[nH]c(=O)n(C(C)(C)CC(C)(C)C)c2c1
4,246 to 247 °C,COc1cc(-c2cnc3[nH]cc(C(=O)C4(C)CCCCC4)c3n2)cc(OC)c1OC
5,189 to 190 °C,Cn1cc(C(=O)NCc2ccc(Cl)cc2)c(=O)c2cc(CN3CC[C@@H](O)C3)oc21
6,260 to 261 °C,Cc1cccc2c(=O)nc(-c3cccc(C(=O)O)n3)sc12
7,123 to 124 °C,O=P(O)(O)CCCCC(F)(F)C(F)(F)C(F)(F)C(F)(F)F
8,201 to 203 °C,c1cc(-c2ccc(N3CCNCC3)nc2)nc(Nc2ccc3cc[nH]c3c2)n1
9,302 to 304 °C,CCN1C(Oc2ccc(C)cc2)=NS(=O)(=O)N=C1Oc1ccc(C)cc1
10,72 to 74 °C,COc1cc(N)c(SC)cc1OC
11,256 to 258 °C,CC(=O)Nc1cnn2cnc3ccccc3c12
12,41 to 43 °C,COc1ccc2cc([C@H](C)C(=O)OCC(=O)N(C)CC(=O)OCCCO[N+](=O)[O-])ccc2c1
13,238 °C,COc1ccc(C2=C(C#N)C(c3cccc4nsnc34)c3c[nH]nc3N2)cc1 (stereo unspecified)
14,58 to 64 °C,COc1ccc(NS(=O)(=O)c2ccc(N3CCC(NC[C@H](O)COc4cccc5[nH]c6ccccc6c45)CC3)cc2)cc1OC
15,58 to 62 °C,CC(=O)Oc1ccc(C(=O)Nc2cccc(OCc3cccnc3)c2)cc1C(C)(C)C
16,278 to 280 °C,Nc1cc(-c2ccccn2)cc2nc(-c3ccccc3)nn12
17,77 to 78 °C,N[C@@H](Cc1cccc(OCC(F)(F)C(F)F)c1)[C@H](O)c1ccc(F)cc1 (racemic)
18,218 °C,O=C(Nc1ccncn1)Nc1cccc2c1C1CCCCN1C2=O (stereo unspecified)
19,182 to 184 °C,C=C(c1ccc(-c2cc[nH]n2)cc1)C(O)(Cn1cncn1)c1ccc(F)cc1F (stereo unspecified)
20,218 to 219 °C,O=C(O)Cc1c(C(=O)c2cc(CO)ccn2)[nH]c2ccc(Cl)cc12
21,214 °C,CC(C)c1nc(COC(N)=O)n(Cc2ccc[nH]c2=O)c1Sc1cc(Cl)cc(Cl)c1
22,99 to 105 °C,O=C(O)Cc1ccc(CNC(=O)C2Cc3ccccc3N2S(=O)(=O)c2ccc(-c3cccc(C(F)(F)F)c3)cc2)c(F)c1 (stereo unspecified)
23,121 to 122 °C,Cc1ccc(-c2oncc2CCC(=O)O)cc1
24,190 to 192 °C,CC(C)(C)CCC/C(=C\c1ccc(C(=O)O)cc1)Cn1ccnc1

row,melting point,SMILES
1,255 °C,N#Cc1cc(N=Nc2cccc(Cl)c2)ccc1N
2,160 to 164 °C,O=C(O)Cc1ccc(F)cc1Sc1ccc([N+](=O)[O-])cc1
3,200 to 210 °C,COc1ccc(N2CCOCC2)c2sc(-c3nc4ccc(C)nc4[nH]3)nc12
4,110 °C,Fc1cccc(C(c2ccc3nccnc3c2)n2ccnc2)c1 (stereo unspecified)
5,239 to 240 °C,COc1cc(Cc2cnc(N)nc2N)c2c(c1OC)OC(C)CC2 (stereo unspecified)
6,201 °C,COc1ccc(-c2nn3c(S(C)=O)nnc3c3ccccc23)cc1 (stereo unspecified)
7,77 to 78 °C,CCCCCCCCCCCCC(=O)c1c[nH]c(C2(OC)OCCSSO2)c1 (stereo unspecified)
8,85 °C,CCCC12CCC(CC(=O)O)(CC1)CC2
9,59 to 61 °C,O=C(c1ccccc1)c1ccc(CO)cc1
10,206 to 207 °C,O=C1CC(c2cccc(-c3nc(CCl)co3)c2)=Nc2ccc(-n3cccc3)cc2N1
11,110 to 113 °C,CCOC(=O)C(C)(C)Oc1ccc(C(=O)Cc2ccccc2)cc1
12,219 to 220 °C,CCCCc1ncc(C=C2C(=O)Nc3ccccc32)n1Cc1ccc(C(=O)OC)cc1Cl
13,92 to 94 °C,COc1ccc2cc(CBr)ccc2c1Br
14,46 to 48 °C,C=C(Cl)CNC(=S)SCc1ccccc1
15,196 °C,OCC1OC(n2cnc3c(NCc4cccc(O)c4)ncnc32)C(O)C1O (stereo unspecified)
16,105 to 107 °C,CCOc1cc2nc(NC)nc(-c3cccc(-c4cccnc4SC)c3)c2cc1OCC
17,108 °C,COCCON1C(=O)C(c2c(C)cc(C)cc2C)C(=O)C12CCN(N(C)C)CC2 (stereo unspecified)
18,218 to 220 °C,CC(C)CCNC(=O)c1ccc(-c2nn(Cc3cccc(Cl)c3)c(=S)[nH]2)cc1
19,263 to 264 °C,CCOC(=O)c1cc2c(=O)c3cc(C(C)(C)O)ccc3oc2nc1N
20,58 to 60 °C,C[C@@H]1CNCc2cc3cccc(OC(F)(F)F)c3n21
21,125 °C,COCc1ccn2nc(S(=O)(=O)Cl)nc2n1
22,265 to 266 °C,O=C(O)c1ccc(-n2c(SCc3ccc(Cl)cc3)nc3ccc(Cl)cc32)cc1
23,203 to 205 °C,COc1ccc(OC)c(CNc2ccc3nc[nH]c(=O)c3c2)c1
24,190 °C,CC(=NO)c1ccc(N2CC(CO)OC2=O)cc1 (stereo unspecified)

row,melting point,SMILES
1,61 to 63 °C,CN(C)C(=O)c1cccnc1SCc1ccccc1
2,> 250 °C,COc1cc2c(cc1-c1ccccc1F)NC(=O)CC(c1cc(C#N)ccc1F)=N2
3,173 to 175 °C,O=C(Nc1cccc(Cl)c1)N[C@H]1C[C@H](C(=O)O)Nc2cc(Cl)cc(Cl)c21 (relative stereo)
4,128 to 130 °C,Cc1nc(-c2ccc(C(F)(F)F)cc2)sc1CCOc1ccc(CC(=O)O)cc1
5,202 to 206 °C,Cc1nc2cc(NC(=O)c3ccccc3O)ccc2o1
6,106 to 108 °C,O=C1c2ccccc2C(=O)N1CCCCN1CCC(c2c[nH]c3ccccc23)CC1
7,158 to 159 °C,FC(F)(F)c1ccc2nccc(N3CCN(C(=S)NCc4ccccc4)CC3)c2c1
8,115 to 117 °C,CCc1nc2c([nH]1)c(=S)n(CC)c(=O)n2CC(C)CC (stereo unspecified)
9,216 to 217 °C,CN1C(=O)CCC2(C)C3CCC4(C)C(OC(=O)NCc5ccccc5)CCC4C3CCC12 (stereo unspecified)
10,121 to 123 °C,CCCCCCCCCCCCCCCCCCn1c(C)c(CC(=O)NN)c2cc(OC)ccc21
11,260 to 262 °C,Cc1cc(Nc2cncc(Nc3cccc(C#N)c3)n2)n[nH]1
12,155 to 159 °C,COC(=O)CCc1cc2cc(Cl)ccc2n1S(=O)(=O)c1ccc(C#N)cc1
13,156 °C,COc1ccc(C(=O)CCCN2CCC(OC(=O)c3cc(Cl)c(N)c4c3OCC4)CC2)cc1OC
14,167 to 168 °C,CCCCc1ccc2c(c1)C(=O)N(c1ccc3c(ccn3C)c1)C2
15,192 to 194 °C,NS(=O)(=O)c1cc2cc(O)ccc2s1
16,> 300 °C,O=c1[nH]c2cc(Cl)c(Cl)cc2nc1Cl
17,75 to 78 °C,CC(C)(C)OC(=O)NC1CC(=O)C1
18,132 to 134 °C,CN1N(c2ccccc2)C(=O)C(F)(F)C1(C)O (stereo unspecified)
19,144 °C,O=C(O)CC1CCCc2cc(S(=O)(=O)c3ccccc3)ccc21 (stereo unspecified)
20,160 to 161 °C,O=C(NC(=O)c1ccccc1)NC1CCN(CC(=O)C2COc3ccccc3O2)CC1 (stereo unspecified)
21,208 to 210 °C,O=C(NO)c1ccc2c(c1)CN(C(=O)c1ccc3ncccc3c1)C2

row,SMILES,melting point
1,CC(=O)N1N=C(c2ccc(N)cc2)c2cc(Cl)ccc2CC1C (stereo unspecified),187 to 189 °C
2,CCCC(=O)N1N=C(c2ccc([N+](=O)[O-])cc2)c2cc(Cl)c(Cl)cc2CC1C (stereo unspecified),75 to 77 °C
3,Cc1c(C2CCC(c3ccccc3)(N(C)C)CC2)[nH]c2ccc(O)cc12 (stereo unspecified),164 to 169 °C
4,Nc1c(C(=O)c2cccc(Cl)c2)cc(Br)cc1[N+](=O)[O-],134 °C
5,CN1CC(c2ccno2)CC2c3cccc4[nH]cc(c34)CC21 (stereo unspecified),132 to 134 °C
6,CN1c2ccccc2C(c2ccccc2F)=NCC1CNC(=O)C(Cc1c[nH]c2ccccc12)NC(=O)OC(C)(C)C (stereo unspecified),124 °C
7,N#Cc1cc(Cl)c(NC(=O)NC(=O)c2ccccc2Cl)cc1Cl,244 to 247 °C
8,Cc1ccc(S(=O)(=O)C(CCl)Sc2cccc([N+](=O)[O-])c2)cc1 (stereo unspecified),92 to 101 °C
